Values joined by “and” are separate entries in the source; they are usually repeats but may differ in a detail not shown here. Identical values can stand only once.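 Each compound was tested at five concentrations against cells in 96-well plates for 48 hours. Here, GI50 denotes the concentration required for 50% inhibition of growth. TGI denotes the concentration required for complete inhibition of growth.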
Experiments:
Test in all cases: NCI anticancer screen, dose series, 48 h
[1] = test system: MDA-MB-231 breast
[2] = test system: MDA-N
[3] = test system: ACHN renal
[4] = test system: BT-549 breast
[5] = test system: PC-3 prostate
[6] = test system: MDA-MB-435
[7] = test system: TK-10 renal
[8] = test system: SR leukemia
[9] = test system: DLD-1 colon
[10] = test system: KM20L2 colon
[11] = test system: DMS 273 small cell lung
[12] = test system: HOP-18 NSCLC
[13] = test system: M19-MEL melanoma
[14] = test system: XF 498 CNS

SMILES | TGI [1] | TGI [2] | TGI [3] | TGI [4] | TGI [5] | TGI [6] | TGI [7] | TGI [8] | TGI [9] | TGI [10] | TGI [11] | TGI [12] | TGI [13] | TGI [14] | GI50 [10] | GI50 [12] | GI50 [14] | GI50 [13] | GI50 [9] | GI50 [11]
CCSc1nc(N)c2c(-c3ccc(OC)c(OC)c3)c3c(nc2n1)CCCC3 | > 100 µM | > 100 µM | > 100 µM | > 100 µM | > 100 µM | > 100 µM | > 100 µM | > 100 µM | – | – | – | – | – | – | – | – | – | – | – | –
C=CCc1cc(-c2cc(CC=C)c(O)c(CN(CCCl)CCCl)c2)cc(CN(CCCl)CCCl)c1O | 45.2 µM | 35 µM | 21.9 µM | 66.9 µM | 25.8 µM | 31.1 µM | 38.8 µM | > 100 µM | 36.2 µM | 35.4 µM | 30.3 µM | 67 µM | 34.7 µM | – | – | – | – | – | – | –
CC(C)(C)NCc1cc(Nc2ccnc3cc(Cl)ccc23)cc(-c2ccc(Cl)cc2)c1O | 11.7 µM | 3.19 µM | 15 µM | – | 8.22 µM | 3.64 µM | 7.76 µM | 4.97 µM | – | – | – | – | – | – | – | – | – | – | – | –
O=C(O)CCCCCCC[C@@H]1S[C@H]1CCCCCCO | – | – | – | – | – | – | – | – | > 100 µM | > 100 µM | > 100 µM | > 100 µM | > 100 µM | > 100 µM | – | – | – | – | – | –
COC(=O)CCC(=O)CC(=O)C1=NS(=O)(=O)c2nc(S(N)(=O)=O)c(Cl)cc2N1 | – | – | > 100 µM | – | – | – | > 100 µM | > 100 µM | > 100 µM | > 100 µM | > 100 µM | > 100 µM | > 100 µM | > 100 µM | – | – | – | – | – | –
Nc1ccccc1CCCC(=O)O | > 100 µM | > 100 µM | > 100 µM | > 100 µM | > 100 µM | > 100 µM | > 100 µM | > 100 µM | – | – | – | – | – | – | – | – | – | – | – | –
COCc1nc2c(OC)cc(-c3nc4nc(N5CCN(C)CC5)ccc4[nH]3)c(OC)c2[nH]1 | > 100 µM | > 100 µM | > 100 µM | > 100 µM | > 100 µM | > 100 µM | > 100 µM | > 100 µM | – | – | – | – | – | – | – | – | – | – | – | –
CC1C(=O)OC2CC[N+]3(CC(=O)c4ccc(Br)cc4)CC=C(COC(=O)C(C)(O)C1(C)O)C23 (stereo unspecified) | – | – | – | – | – | – | – | – | > 375 µM | > 266 µM | > 375 µM | > 375 µM | > 375 µM | > 375 µM | – | – | – | – | – | –
CN(C)c1ccc(/C=C2/SC(=S)NC2=O)cc1 | > 100 µM | > 100 µM | > 100 µM | > 100 µM | > 100 µM | > 100 µM | 53 µM | > 100 µM | – | – | – | – | – | – | – | – | – | – | – | –
S=C1SC(=Nc2ccccc2)C(=Nc2ccccc2)N1c1ccccc1 | > 100 µM | > 100 µM | – | > 100 µM | > 100 µM | > 100 µM | – | > 100 µM | – | – | – | – | – | – | – | – | – | – | – | –
O=c1[nH]c(Nc2ccc(F)c(Cl)c2)nc2nc[nH]c12 | > 100 µM | > 100 µM | > 100 µM | > 100 µM | > 100 µM | > 100 µM | > 100 µM | – | – | – | – | – | – | – | – | – | – | – | – | –
Cc1cc(NC(=S)Nc2ccccc2)c(NC(=S)Nc2ccccc2)cc1C | – | – | – | – | – | – | – | – | > 100 µM | > 92 µM | > 100 µM | > 100 µM | > 100 µM | 84 µM | – | – | – | – | – | –
N#C[S-].[Nd+3].c1cnc2c(c1)ccc1cccnc12.c1cnc2c(c1)ccc1cccnc12.c1cnc2c(c1)ccc1cccnc12 | – | – | 13 µM | – | – | – | 22 µM | > 100 µM | – | 15.3 µM | – | 7.53 µM | 3.63 µM | 9.61 µM | 1.11 µM | 0.787 µM | 4 µM | 0.566 µM | – | –
CC1=C(C)C(=O)O[C@@H]([C@](C)(O)[C@]2(O)CC[C@@]3(O)[C@@H]4C[C@H]5O[C@]56[C@@H](O)C=CC(=O)[C@]6(C)[C@H]4CC[C@]23C)C1 | – | – | – | – | – | – | – | – | 3.36 µM and 3.89 µM | 4 µM and 1.35 µM | 5.32 µM and 3.13 µM | 2.44 µM | – | 0.819 µM and 0.8 µM | 0.335 µM and 0.125 µM | – | 0.082 µM | – | 0.666 µM and 0.162 µM | 1.5 µM and 0.252 µM
C[n+]1c2ccccc2c(CNc2ccc(S(=O)(=O)N=C(N)N)cc2)c2ccccc21 | – | – | > 100 µM | – | – | – | > 100 µM | – | 65.5 µM | 59.6 µM | 24.2 µM | – | 42 µM | – | – | – | – | – | – | –
CC(C)=CC1C(COC(=O)c2cc3c(cc2Cl)OCO3)C1(C)C (stereo unspecified) | > 100 µM | > 100 µM | > 100 µM | 81.8 µM | > 100 µM | > 100 µM | > 100 µM | 78.3 µM | – | – | – | – | – | – | – | – | – | – | – | –

Reference: PubChem BioAssay (NCI)
